Experimental data from patent US6344562B1, “Thiazole derivatives” (Hoffmann-La Roche Inc., priority 1998, dated 2002).
Structures can show the parent of a compound that is named as a salt.

Structure (SMILES) | melting point
CCOC(=O)CCc1ccc(NC(=O)c2csc(NC(=O)NCc3ccccc3)n2)cc1 [Example 153, ethyl 3-[4-[[2-(3-benzyl-ureido)-thiazole-4-carbonyl]-amino]-phenyl]-propionate] | 194 °C
CCOC(=O)CC(NC(=O)c1cc(NC(=O)c2sc(NC(=N)N)nc2C)cc(OCc2ccccc2)c1)c1ccccc1 (racemic) [Example 74, ethyl (RS)-3-{3-benzyloxy-5-[(2-guanidino-4-methyl-thiazole-5-carbonyl)-amino]-benzoylamino}-3-phenyl-propionate] | 116 °C
CC(=O)O.Cc1nc(N=C2NCCCN2)sc1C(=O)NCCCCC(CC(=O)O)c1ccccc1.Cl (racemic) | 60 to 63 °C
N=C(N)Nc1nc(C(=O)NCCC(=O)NC(CC(=O)O)c2ccccc2)cs1 (racemic) [Example 25, rac-3-[3-[(2-guanidino-thiazole-4-carbonyl)-amino]-propionylamino]-3-phenyl-propionic acid] | 105 to 107 °C (dec.)
CC(C)(C)OC(=O)CCNC(=O)c1cccc(NC(=O)c2csc(NC(=O)NCc3ccccc3)n2)c1 [Example 169, tert-butyl 3-(3-{[2-(3-benzyl-ureido)-thiazole-4-carbonyl]-amino}-benzoylamino)-propionate] | 212 °C
CCCCCc1nc(NC(=N)N)sc1-c1cccc(NC(=O)CC(CC(=O)O)c2ccccc2)c1 (racemic) [Example 94, rac-4-[3-(2-guanidino-4-pentyl-thiazol-5-yl)-phenylcarbamoyl]-3-phenyl-butyric acid] | 186 to 188 °C (dec.)
CCOC(=O)CC(CCCCNC(=O)c1sc(N=C2NCCCN2)nc1C)c1ccccc1 (racemic) [Example 173, ethyl rac-7-[[4-methyl-2-(tetrahydro-pyrimidin-2-ylideneamino)-thiazole-5-carbonyl]-amino]-3-phenyl-heptanoate] | 137 to 139 °C
CCOC(=O)CCCC(=O)CNC(=O)c1csc(NC(=O)NCc2ccccc2)n1 [Example 82, ethyl 6-{[2-(3-benzyl-ureido)-thiazole-4-carbonyl]-amino}-5-oxo-hexanoate] | 135 to 136 °C
O=C(O)C[C@H](NC(=O)CNC(=O)c1csc(NC(=O)NCc2ccccc2)n1)C(=O)Nc1ccccc1C(=O)O [Example 136, (S)-2-[2-(2-{[2-(3-benzyl-ureido)-thiazole-4-carbonyl]-amino}-acetylamino)-3-carboxy-propionylamino]-benzoic acid] | 192 °C
CC(C)(C)OC(=O)C[C@H](NC(=O)CNC(=O)c1csc(NC(=O)NCc2ccccc2)n1)C(=O)Nc1ccccc1C(=O)OC(C)(C)C [Example 135, tert-butyl (S)-2-[2-[2-[[2-(3-benzyl-ureido)-thiazole-4-carbonyl]-amino]-acetylamino]-3-tert-butoxycarbonyl-propionylamino]-benzoate] | 116 °C
O=C(O)C(F)(F)F.O=C(O)C[C@H](NC(=O)CCCc1csc(NC(=O)NCc2ccccc2)n1)C(=O)NCc1ccccc1 | 159 °C
CC(C)(C)OC(=O)C[C@H](NC(=O)CNC(=O)c1csc(NC(=O)NCc2ccccc2)n1)C(=O)NCc1ccccc1 [Example 129, tert-butyl (S)-N-benzyl-3-[2-[[2-(3-benzyl-ureido)-thiazole-4-carbonyl]-amino]-acetylamino]-succinamate] | 123 °C
O=C(O)CCNC(=O)c1cccc(NC(=O)c2csc(NC(=O)NCc3ccccc3)n2)c1 [Example 170, 3-(3-{[2-(3-benzyl-ureido)-thiazole-4-carbonyl]-amino}-benzoylamino)-propionic acid] | 157 °C
CC(C)(C)OC(=O)C[C@H](NC(=O)CNC(=O)c1csc(NC(=O)NCc2ccccc2)n1)C(=O)NCc1cccnc1 [Example 163, tert-butyl (S)-3-[2-[[2-(3-benzyl-ureido)-thiazole-4-carbonyl]-amino]-acetylamino]-N-pyridin-3-ylmethyl-succinamate] | 185 °C
Cl.Cl.O=C(O)CC(NC(=O)CNC(=O)c1csc(N=C2NCCN2)n1)c1cccnc1 (stereo not shown) | 170 to 172 °C
O=C(O)CCCC(=O)CNC(=O)c1csc(NC(=O)NCc2ccccn2)n1 (as salt: hydrochloride) [Example 150, 5-oxo-6-{[2-(3-pyridin-2-ylmethyl-ureido)-thiazole-4-carbonyl]-amino}-hexanoic acid] | 199 °C
CCOC(=O)CC(CCCNC(=O)c1csc(NC(=O)NCc2ccccc2)n1)C(=O)NCc1ccccc1 (racemic) [Example 147, ethyl rac-3-benzylcarbamoyl-6-{[2-(3-benzyl-ureido)-thiazole-4-carbonyl]-amino}-hexanoate] | 128 °C
O=C(O)CCCC(=O)CNC(=O)c1csc(NC(=O)NCc2ccccc2)n1 [Example 83, 6-{[2-(3-benzyl-ureido)-thiazole-4-carbonyl]-amino}-5-oxo-hexanoic acid] | 169 °C
CCc1nc(NC(=N)N)sc1-c1cccc(NC(=O)CC(CC(=O)O)c2ccccc2)c1 (racemic) (as salt: salt) [Example 91, rac-4-[3-(4-ethyl-2-guanidino-thiazol-5-yl)-phenylcarbamoyl]-3-phenyl-butyric acid] | 186 to 188 °C
CCOC(=O)CC(CC(=O)CNC(=O)c1csc(NC(=O)NCc2ccccc2)n1)C(=O)OCC (racemic) (as salt: succinate) [Example 155, diethyl rac-2-[3-[[2-(3-benzyl-ureido)-thiazole-4-carbonyl]-amino]-2-oxo-propyl]-succinate] | 126 to 129 °C
CC(C)(C)OC(=O)N[C@H](Cc1ccc(NC(=O)c2csc(NC(=O)NCc3ccccc3)n2)cc1)C(=O)O [Example 166, (R)-3-[4-[[2-(3-benzyl-ureido)-thiazole-4-carbonyl]-amino]-phenyl]-2-tert-butoxycarbonylamino-propionic acid] | 232 °C
CCOC(=O)CCNC(=O)CNC(=O)c1csc(NC(=O)NCc2ccccc2)n1 [Example 131, ethyl 3-[2-[[2-(3-benzyl-ureido)-thiazole-4-carbonyl]-amino]-acetylamino]-propionate] | 187 °C
O=C(O)C[C@H](NC(=O)CNC(=O)c1csc(NC(=O)NCc2ccccc2)n1)C(=O)NCc1ccccc1 (as salt: trifluoroacetate) [Example 130, (S)-N-benzyl-3-[2-[[2-(3-benzyl-ureido)-thiazole-4-carbonyl]-amino]-acetylamino]-succinamic acid] | 193 °C
CCOC(=O)CC(NC(=O)CNC(=O)c1csc(NC(=N)N)n1)c1ccccc1 (racemic) [Example 22, ethyl rac-3-[2-[(2-guanidino-thiazole-4-carbonyl)-amino]-acetylamino]-3-phenyl-propionate] | 177 to 178 °C (dec.)
N=C(N)Nc1nc(C(=O)NCC(=O)NC(CC(=O)O)c2cccnc2)cs1 (racemic) [Example 81, (RS)-3-{2-[(2-guanidino-thiazole-4-carbonyl)-amino]-acetylamino}-3-pyridin-3-yl-propionic acid] | 186 °C
